Results as given in PubChem BioAssay (NCI).
Several values for one entry are separate records, joined by “and”; a condition that tells them apart may be missing. Equal entries are not always repeated.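 Interpolation was linear, between the two tested concentrations surrounding the appropriate level; five concentrations were tested over 48 hours in 96-well plates. Here, GI50 denotes the concentration required for 50% inhibition of growth. At the TGI there is no net growth.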

Experiments:
Experiment in all cases: inhibition of tumour cell growth, NCI panel, 48 h
COLO 205 colon = system: COLO 205 colon
MOLT-4 leukemia = system: MOLT-4 leukemia
CAKI-1 renal = system: CAKI-1 renal
HCT-116 colon = system: HCT-116 colon
OVCAR-8 ovarian = system: OVCAR-8 ovarian
LOX IMVI melanoma = system: LOX IMVI melanoma
HCT-15 colon = system: HCT-15 colon
HCC-2998 colon = system: HCC-2998 colon
NCI-H226 lung = system: NCI-H226 lung
NCI-H460 lung = system: NCI-H460 lung

## Nc1nnc2c(-c3ccccc3)[nH]nc2n1
COLO 205 colon
  TGI: > 100 µM
MOLT-4 leukemia
  TGI: > 100 µM
CAKI-1 renal
  TGI: > 100 µM
HCT-116 colon
  TGI: > 100 µM
OVCAR-8 ovarian
  TGI: > 100 µM
LOX IMVI melanoma
  TGI: > 100 µM
HCT-15 colon
  TGI: > 100 µM
HCC-2998 colon
  TGI: > 100 µM
NCI-H226 lung
  TGI: > 100 µM
NCI-H460 lung
  TGI: > 100 µM

## COc1ccc(-c2cc(-c3ccc(Nc4nc(Nc5ccccc5)nc(Nc5ccc(Cl)cc5)n4)cc3)nc(N)n2)cc1
COLO 205 colon
  GI50: 2.29 µM
  TGI: 16.7 µM
MOLT-4 leukemia
  GI50: 0.623 µM
  TGI: 12 µM
CAKI-1 renal
  GI50: 5.4 µM
  TGI: 23.3 µM
HCT-116 colon
  GI50: 6.74 µM
  TGI: 16.8 µM
OVCAR-8 ovarian
  GI50: 15.1 µM
  TGI: > 50 µM
LOX IMVI melanoma
  GI50: 11.1 µM
  TGI: 39 µM
HCT-15 colon
  GI50: 13.5 µM
  TGI: > 50 µM
HCC-2998 colon
  GI50: 12.8 µM
  TGI: 35 µM
NCI-H226 lung
  GI50: 12.9 µM
  TGI: > 50 µM
NCI-H460 lung
  GI50: 8.57 µM
  TGI: 26.7 µM

## COc1cc(-c2cc(/C=C/C(=O)c3ccc(F)c(F)c3)[nH]n2)cc(OC)c1OC
COLO 205 colon
  GI50: 1.69 µM
  TGI: 3.19 µM
MOLT-4 leukemia
  GI50: 2.72 µM
  TGI: 9.09 µM
CAKI-1 renal
  GI50: 2.98 µM
  TGI: > 100 µM
HCT-116 colon
  GI50: 4 µM
  TGI: 13.9 µM
OVCAR-8 ovarian
  GI50: 2.88 µM
  TGI: 17.3 µM
LOX IMVI melanoma
  GI50: 3.18 µM
  TGI: 12.2 µM
HCT-15 colon
  GI50: 3.01 µM
  TGI: > 100 µM
HCC-2998 colon
  GI50: 3.69 µM
  TGI: 34.1 µM
NCI-H226 lung
  GI50: 3.72 µM
  TGI: 15.8 µM
NCI-H460 lung
  GI50: 2.96 µM
  TGI: 8.24 µM

## CC1CC2C3CCC4=CC(=O)C=CC4(C)C3(F)C(O)CC2(C)C1(O)C(=O)COP(=O)(O)O (centres undefined)
COLO 205 colon
  GI50: > 500 µM
  TGI: > 500 µM
MOLT-4 leukemia
  GI50: > 500 µM
  TGI: > 500 µM
CAKI-1 renal
  GI50: > 500 µM
  TGI: > 500 µM
HCT-116 colon
  GI50: > 500 µM
  TGI: > 500 µM
OVCAR-8 ovarian
  GI50: > 500 µM
  TGI: > 500 µM
LOX IMVI melanoma
  GI50: > 500 µM
  TGI: > 500 µM
HCT-15 colon
  GI50: > 500 µM
  TGI: > 500 µM
HCC-2998 colon
  GI50: > 500 µM
  TGI: > 500 µM
NCI-H226 lung
  GI50: > 500 µM
  TGI: > 500 µM
NCI-H460 lung
  GI50: > 500 µM
  TGI: > 500 µM

## CN(C)CCNC(=O)c1cccc2c1nc(-c1ccc(F)cc1)c1ccccc12
COLO 205 colon
  TGI: 14.3 µM
MOLT-4 leukemia
  TGI: 1.77 µM
CAKI-1 renal
  TGI: 16.8 µM
HCT-116 colon
  TGI: 13.4 µM
OVCAR-8 ovarian
  TGI: 18.2 µM
LOX IMVI melanoma
  TGI: 5.36 µM
HCT-15 colon
  TGI: 13.9 µM
HCC-2998 colon
  TGI: 16.7 µM
NCI-H226 lung
  TGI: 9.31 µM
NCI-H460 lung
  TGI: 12 µM

## COC(=O)NC1C(C)OC(OC2C/C=C(/C)C3C=CC4C(OC5CC(OC6CCC(OC7CC(O)C(OC8CCC(O)C(C)O8)C(C)O7)C(C)O6)C(OC(C)=O)C(C)O5)C(C)CC(C)C4C3(C)/C(O)=C3/C(=O)OC4(CC(C=O)=CC(O)C4/C=C\2C)C3=O)CC1(C)[N+](=O)[O-] (centres undefined)
COLO 205 colon
  GI50: 0.321 µM
  TGI: 2.71 µM and 1.08 µM
MOLT-4 leukemia
  GI50: 0.131 µM
  TGI: 4.78 µM and 0.634 µM
CAKI-1 renal
  GI50: 1.05 µM
  TGI: 7.08 µM and 3.27 µM
HCT-116 colon
  GI50: 0.146 µM
  TGI: 2.05 µM and 0.289 µM
OVCAR-8 ovarian
  GI50: 0.265 µM
  TGI: 3.85 µM and 2.73 µM
LOX IMVI melanoma
  GI50: 0.281 µM
  TGI: 1.32 µM and 0.808 µM
HCT-15 colon
  GI50: 1.22 µM
  TGI: 3.4 µM and 4.26 µM
HCC-2998 colon
  GI50: 0.208 µM
  TGI: 1.95 µM and 0.453 µM
NCI-H226 lung
  TGI: 2.72 µM
NCI-H460 lung
  GI50: 0.319 µM
  TGI: 2.17 µM and 2.14 µM

## c1ccc(-c2oc(-c3ccccc3)c(CN3CCCCC3)c2CN2CCCCC2)cc1
COLO 205 colon
  GI50: 1.45 µM
  TGI: 5.01 µM
MOLT-4 leukemia
  GI50: 2.03 µM
  TGI: 5.58 µM
CAKI-1 renal
  GI50: 4.81 µM
  TGI: 18.7 µM
HCT-116 colon
  GI50: 1.05 µM
  TGI: 11.2 µM
OVCAR-8 ovarian
  GI50: 3.91 µM
  TGI: 17.1 µM
LOX IMVI melanoma
  GI50: 3.19 µM
  TGI: 12.1 µM
HCT-15 colon
  GI50: 1.79 µM
  TGI: 10.3 µM
HCC-2998 colon
  GI50: 2.02 µM
  TGI: 4.23 µM
NCI-H226 lung
  GI50: 5.19 µM
  TGI: 22.7 µM
NCI-H460 lung
  GI50: 3.25 µM
  TGI: 14.2 µM

## Cn1cc(/C=C\[N+](=O)[O-])c2ccccc21
COLO 205 colon
  GI50: 42.3 µM
  TGI: > 100 µM
MOLT-4 leukemia
  GI50: 23.7 µM
  TGI: 58.4 µM
CAKI-1 renal
  GI50: 66.8 µM
  TGI: > 100 µM
HCT-116 colon
  GI50: 19 µM
  TGI: 43 µM
OVCAR-8 ovarian
  GI50: 26.9 µM
  TGI: 86.1 µM
LOX IMVI melanoma
  GI50: 18 µM
  TGI: 36 µM
HCT-15 colon
  GI50: 44.3 µM
  TGI: > 100 µM
HCC-2998 colon
  GI50: 33.2 µM
  TGI: > 100 µM
NCI-H226 lung
  GI50: 53.3 µM
  TGI: > 100 µM
NCI-H460 lung
  GI50: 38.6 µM
  TGI: > 100 µM

## Cc1nc(N)nc(N)c1CCCCc1ccc(N)cc1
COLO 205 colon
  TGI: 28 µM
MOLT-4 leukemia
  TGI: 35.2 µM
CAKI-1 renal
  TGI: 39.5 µM
HCT-116 colon
  TGI: 13.4 µM
OVCAR-8 ovarian
  TGI: 20.6 µM
LOX IMVI melanoma
  TGI: 14.8 µM
HCT-15 colon
  TGI: 18.4 µM
HCC-2998 colon
  TGI: 15.7 µM
NCI-H226 lung
  TGI: 56.1 µM
NCI-H460 lung
  TGI: 13.6 µM

## Oc1ccc(Cl)cc1C(c1cc(Cl)ccc1O)C(Cl)(Cl)Cl
COLO 205 colon
  GI50: 1.9 µM
  TGI: 3.82 µM
MOLT-4 leukemia
  GI50: 1.54 µM
  TGI: 5.06 µM
CAKI-1 renal
  GI50: 1.97 µM
  TGI: 6.06 µM
HCT-116 colon
  GI50: 1.56 µM
  TGI: 2.97 µM
OVCAR-8 ovarian
  GI50: 2.89 µM
  TGI: 9.59 µM
LOX IMVI melanoma
  GI50: 1.66 µM
  TGI: 3.22 µM
HCT-15 colon
  GI50: 1.94 µM
  TGI: 5.07 µM
HCC-2998 colon
  GI50: 1.69 µM
  TGI: 3.28 µM
NCI-H226 lung
  GI50: 1.94 µM
  TGI: 4.81 µM
NCI-H460 lung
  GI50: 2.13 µM
  TGI: 4.58 µM

## Cc1cc(=O)oc2ccc(OC/C=C3\CCC(=O)O3)cc12
COLO 205 colon
  GI50: 2.17 µM
  TGI: 7.24 µM
MOLT-4 leukemia
  GI50: 3.05 µM
  TGI: > 100 µM
CAKI-1 renal
  GI50: 2.72 µM
  TGI: 14.8 µM
HCT-116 colon
  GI50: 3.82 µM
  TGI: 15.1 µM
OVCAR-8 ovarian
  GI50: 10 µM
  TGI: 25 µM
LOX IMVI melanoma
  GI50: 4.94 µM
  TGI: 17.2 µM
HCT-15 colon
  GI50: 3.5 µM
  TGI: 11.5 µM
HCC-2998 colon
  GI50: 14.7 µM
  TGI: 28.1 µM
NCI-H226 lung
  GI50: 17.2 µM
  TGI: 57.2 µM
NCI-H460 lung
  GI50: 17.3 µM
  TGI: 43 µM

## COc1ccc2nc3cc(Cl)ccc3c(NCCCNCCO)c2c1
COLO 205 colon
  GI50: 0.241 µM
  TGI: 1.14 µM
MOLT-4 leukemia
  GI50: 0.413 µM
  TGI: 3.4 µM
CAKI-1 renal
  GI50: 0.816 µM
  TGI: 3.55 µM
HCT-116 colon
  GI50: 0.326 µM
  TGI: 1.43 µM
OVCAR-8 ovarian
  GI50: 0.415 µM
  TGI: 2.45 µM
LOX IMVI melanoma
  GI50: 0.294 µM
  TGI: 1.12 µM
HCT-15 colon
  GI50: 0.577 µM
  TGI: 3.15 µM
HCC-2998 colon
  GI50: 0.609 µM
  TGI: 2.17 µM
NCI-H226 lung
  GI50: 1.16 µM
  TGI: 3.12 µM
NCI-H460 lung
  GI50: 0.275 µM
  TGI: 1.2 µM

## CN(C)c1ccc(/C=C\c2ccnc3ccccc23)cc1
COLO 205 colon
  GI50: 4.75 µM
  TGI: 41.5 µM
MOLT-4 leukemia
  GI50: 14.5 µM
  TGI: > 100 µM
CAKI-1 renal
  GI50: 10.2 µM
  TGI: > 100 µM
HCT-116 colon
  GI50: 5.34 µM
  TGI: > 52.6 µM
OVCAR-8 ovarian
  GI50: 5.26 µM
  TGI: > 100 µM
LOX IMVI melanoma
  GI50: 9.82 µM
  TGI: > 100 µM
HCT-15 colon
  GI50: 4.42 µM
  TGI: > 100 µM
HCC-2998 colon
  GI50: 6.04 µM
  TGI: > 100 µM
NCI-H226 lung
  GI50: 2.86 µM
  TGI: 48.2 µM
NCI-H460 lung
  GI50: 5.2 µM
  TGI: > 91.8 µM
